# Measurements: patent US10590121B2, “Kinase inhibitors and methods for making and using” (Rigel Pharmaceuticals, Inc., priority 2017, dated 2020)
# Columns and labels:
# [1] = tested on: LPS induced IL-23 (p19/p40) in DC cells differentiated from human PBMC; test: IL23-p19 ELISA, dendritic cells (DC differentiated from human PBMC), IFNγ primed, LPS stimulated; assay type: cell-based; conditions: human PBMC-derived dendritic cells, 1 μg/ml LPS, 18 hours, 10 pt
# Procedure: Compound Screening Using DC Cells
# 1. Differentiation of PBMC's to DC Cells:
# Human PBMC cells (400 million) obtained from the vendor were transferred into a T-175 flask containing 15 ml RPMI media (10% FBS) and incubate for 2 hours at 37° C. After 2 hours, the media including floating cells was aspirated out carefully and 12 ml of fresh RPMI media (10% FBS) containing GMCSF (100 ng/ml) and IL4 (20 ng/ml) was added, and the flask was kept in a 37° C. incubator for 7 days.
# After 3 days, fresh GMCSF (100 ng/ml) and IL4 (20 ng/ml) were added to the flask and the incubation continued. After 7 days, the fully differentiated cells were harvested by spinning down (1200 rpm/5 min) and aspirating the media. The cells were suspended in fresh RPMI media (10% FBS) containing 50 ng/ml IFNγ (1000 U/ml) and then plated (50K/well in 100 μl) onto a white clear bottom 96 well plate and left in a 37° C. incubator for 24 hours.
# 2. Addition of Compounds:
# After 24 hours incubation, 100 μl of RPMI media was added containing 2× concentrated test compound per well to the above cell-culture media (final concentration becomes 1×) and the plates were pre-incubated for 1 hour at 37° C. before stimulating with LPS.
# After 1 hour compound pre-incubation, 10 μl per well of 20× concentrated LPS solution in RPMI media was added to give a final concentration of 1 μg/ml. The mixture was shaken and incubated the plates at 37° C. for an additional 18 hours.
# 155 μl of the supernatant was harvested from each well carefully (without the tip touching the bottom of the well) and to the remaining 50 μl/well of the cell culture plate was added 50 μl of Cell Titer Glo reagent. The mixture was incubated for 1-2 minutes on a shaker and the plate was read for luminescence intensity to determine the compound cytotoxicity. The cell culture supernatant collected above was used to carry out IL23 ELISA (65 μl-Supernatant) and IL10 ELISA (90 μl-Supernatant) as described below.
# Human IL-23 (p19/p40) ELISA Protocol (e-Biosciences)
# To 10.5 ml PBS add 50 μl of anti-IL23 (p19) was added capture antibody (2.5 μg/ml). The mixture was mixed well and 100 μl of the coating solution was added to each well of the 96 well white plates from Pierce. The wells were covered and incubated overnight at 4° C.
# The anti-IL23 (p19)-antibody-coated plates were washed 2× using TBST (use plate washer) and blocked using 200 μl of 0.5% Casein for 1.5-2 hours at room temperature with shaking.
# The plates were washed 2× using TBST and the supernatant was transferred (65 μl/well) to the above pre-blocked/IL23 (p19)-antibody-coated 96 well plate, and incubated at room temperature for 1.5 hours with shaking.
# The plates were washed 4× using TBST (plate washer) and 100 μl/well detection antibody solution prepared from 2 μl of biotin labeled anti-IL-12 (p40/p70) antibody in 11 ml 1% BSA/PBS solution (1-5000 dilution) was added. The plates were incubated for 1 hour with shaking at room temperature.
# Again, the plates were washed 4× with TBST and 100 μl of HRP labeled Streptavidin (R&D Systems) solution (10 μl/10 ml 1% BSA solution) was added, and the plates were incubated at room temperature for another 45 minutes with shaking.
# After 45 minutes, the plates were washed with TBST 4× and 100 ul/well Super Signal ELISA Pico Chemiluminescent Substrate from Pierce (3.5 ml A+3.5 ml B+3.5 ml MQ water) was added. The plates were shaken for 1-2 minutes then read on a plate reader.
# [2] = tested on: LPS induced IL23p19 in THP-1 cells; test: LPS Induced IL23p19 in THP-1 Cells (with IFNγ Primed) Assay; assay type: cell-based; conditions: Homo sapiens; THP-1 cells primed with IFNγ 50 ng/mL, 1 μg/mL LPS, 18 hours, 10 pt; read-out: IL23-p19 ELISA, THP1-IFNy, LPS, 10 pt EC50
# Source text: LPS Induced IL23p19 in THP-1 Cells (with IFNγ Primed) Assay
# THP-1 Cells (ATCC, Cat # TIB-202), Dimethyl Sulfoxide (DMSO) (Sigma-Aldrich, Cat # D2650), RPMI 1640 (Cellgro, Cat #10-040-CM), Fetal Bovine Serum (Sigma, Cat # F4135), Albumin From Bovine Serum (BSA) (Sigma-Aldrich, Cat # A7906), LPS (Serotype K-235, Sigma, Product Number L 2143), IFNγ (Peprotech, Cat #300-02), Capture antibody: Human IL-23p19 ELISA (e-Bioscience, Cat. #14-7238-85), Detection antibody: Primary Mouse Biotinylated anti-human IL-12 (p40/p70) (e-Bioscience, Cat. #13-7129-85), Secondary HRP-conjugated Streptavidin (R&D Systems, Cat # DY998), 1×PBST Washing Buffer (PBS-Tween tablet) (VWR International, Cat #80058-558), ELISA Blocking Buffer (PBS with 1% BSA), ELISA Dilution Buffer (PBS with 1% BSA), 384 Well Flat-Bottom, MaxiSorp Black Immuno Plates (Thermo Scientific, Cat #12-565-346), 384 Well Flat-Bottom, White Tissue Culture Plates (Thermo Scientific, Cat #12-565-343), Super Signal ELISA Pico Chemiluminescent Substrate (Thermo Scientific, Cat #37070), Cell Titer Glo reagent (Promega, Cat # G7573), Positive control, IKK2VI inhibitor (Calbiochem, Cat #401483), AquaMax 4000 plate washer (Molecular Devices), Luminometer, Wallac Victor2 1420 Multilabel Counter.
# On day 1, 50K/well THP-1 cells were seeded and primed with IFNγ (50 ng/mL) in 384-well plates for about 18 hours in RPMI media with 10% FBS. On day 2, the compound was serially diluted in DMSO from 5 mM in 3-fold dilutions, and then diluted 1:125 in RPMI media with 10% FBS. 50 μL/well 2× compound was added to 50 μL/well THP-1 cells (with IFNγ primed) in duplicate in 384 well tissue culture plates. The cells were pre-incubated with compound for 1 hour at 37° C., 5% CO2 before addition of 10 μL/well 11×LPS to give a final concentration of 1 μg/mL LPS. Day 3, after stimulation for 18 hours at 37° C., 5% CO2, the assay plate was centrifuged and 70 μL/well supernatant was harvested. IL-23p19 protein in 70 μL/well of supernatant was measured by sandwich ELISA, and 25 μl/well Cell Titer Glo reagent was added to the remaining cells to measure compound toxicity.
# Human IL-23p19 Sandwich ELISA:
# Maxisorp immuno ELISA plates were pre-coated with 25 μL/well of anti-IL-23p19 capture antibody (2.5 ug/mL) in PBS overnight at room temperature. After washing with 1×PBST, the plates were blocked using 100 μL/well of 1% BSA in PBS for 2 hours at room temperature. The plates were washed three times with 1×PBST and 70 μL/well supernatant were added. The plates were incubated at room temperature for 2 hours with shaking and washed three times with 1×PBST. 25 μL/well of biotin labeled anti-IL-12 (p40/p70) detection antibody (100 ng/mL) in PBS with 1% BSA was added and the plates were incubated at room temperature for 2 hours with shaking. After washing three times with 1×PBST, 25 μL/well of streptavidin-HRP (1:200) in PBS with 1% BSA was added and the plates were incubated at room temperature for 20 minutes with shaking. The plates were washed three times with 1×PBST and 25 μL/well of Super Signal ELISA Pico Chemiluminescent Substrate were added. The plates were read with a luminometer, and the chemiluminescence values were entered into Athena (Rigel) for curve fitting, EC50 calculation, and database storage.
smiles,measurement,setting,value
"O=C(Nc1ccc(CCN2CCOCC2)cc1N1CCCCC1)c1csc(-c2cn[nH]c2)n1 [I-56, N-(4-(2-morpholinoethyl)-2-(piperidin-1-yl)phenyl)-2-(1H-pyrazol-4-yl)thiazole-4-carboxamide]",EC50,[1],9560 nM
same,EC50,[2],2370 nM
"O=C(Nc1cc(CC(=O)N2CCOCC2)ccc1N1CCCCC1)c1cccc(-c2cn[nH]c2)n1 [I-63, N-(5-(2-morpholino-2-oxoethyl)-2-(piperidin-1-yl)phenyl)-6-(1H-pyrazol-4-yl)picolinamide]",EC50,[1],160 nM
same,EC50,[2],150 nM
"O=C(Nc1ccc(N2CCOCC2)cc1N1CCCCC1)c1csc(-c2cn[nH]c2)n1 [I-38, N-(4-morpholino-2-(piperidin-1-yl)phenyl)-2-(1H-pyrazol-4-yl)thiazole-4-carboxamide]",EC50,[1],3980 nM
same,EC50,[2],31000 nM
"O=C(Nc1ccc(N2CCOCC2)cc1N1CCC(O)CC1)c1csc(-c2cn[nH]c2)n1 [I-12, N-(2-(4-hydroxypiperidin-1-yl)-4-morpholinophenyl)-2-(1H-pyrazol-4-yl)thiazole-4-carboxamide]",EC50,[1],60 nM
same,EC50,[2],84.1 nM
"O=C(Nc1cc(CCN2CCOCC2)c(F)cc1N1CCCCC1)c1csc(-c2cn[nH]c2)n1 [I-32, N-(4-fluoro-5-(2-morpholinoethyl)-2-(piperidin-1-yl)phenyl)-2-(1H-pyrazol-4-yl)thiazole-4-carboxamide]",EC50,[1],324 nM
same,EC50,[2],173 nM
"O=C(Nc1ccc(CN2CCOCC2)cc1N1CCCCC1)c1cccc(-c2cn[nH]c2)n1 [I-48, N-(4-(morpholinomethyl)-2-(piperidin-1-yl)phenyl)-6-(1H-pyrazol-4-yl)picolinamide]",EC50,[1],468 nM
same,EC50,[2],177 nM
"O=C(Nc1cc(CN2CCOCC2)ccc1N1CCCCC1)c1ccc(-c2cn[nH]c2)o1 [I-61, N-(5-(morpholinomethyl)-2-(piperidin-1-yl)phenyl)-5-(1H-pyrazol-4-yl)furan-2-carboxamide]",EC50,[1],3840 nM
same,EC50,[2],767 nM
"O=C(Nc1ccc(NCCN2CCOCC2)cc1N1CCCCC1)c1ccc(-c2cn[nH]c2)o1 [I-73, N-(4-((2-morpholinoethyl)amino)-2-(piperidin-1-yl)phenyl)-5-(1H-pyrazol-4-yl)furan-2-carboxamide]",EC50,[1],175 nM
same,EC50,[2],82.7 nM
"O=C(Nc1cc(N2CCOCC2)ccc1N1CCCCC1)c1cccc(-c2cn[nH]c2)n1 [I-75, N-(5-morpholino-2-(piperidin-1-yl)phenyl)-6-(1H-pyrazol-4-yl)picolinamide]",EC50,[2],52800 nM
"O=C(Nc1ccc(C(=O)N2CCOCC2)cc1N1CCCCC1)c1ccc(-c2cn[nH]c2)o1 [I-46, N-(4-(morpholine-4-carbonyl)-2-(piperidin-1-yl)phenyl)-5-(1H-pyrazol-4-yl)furan-2-carboxamide]",EC50,[1],2660 nM
same,EC50,[2],1360 nM
"O=C(Nc1ccc(N2CCOCC2)cc1N1CCC(F)(F)CC1)c1ccc(-c2cn[nH]c2)o1 [I-20, N-(2-(4,4-difluoropiperidin-1-yl)-4-morpholinophenyl)-5-(1H-pyrazol-4-yl)furan-2-carboxamide]",EC50,[1],1120 nM
same,EC50,[2],2330 nM
"CN(CCN1CCOCC1)c1ccc(NC(=O)c2ccc(-c3cn[nH]c3)o2)c(N2CCCCC2)c1 [I-70, N-(4-(methyl(2-morpholinoethyl)amino)-2-(piperidin-1-yl)phenyl)-5-(1H-pyrazol-4-yl)furan-2-carboxamide]",EC50,[1],1920 nM
same,EC50,[2],1440 nM
"O=C(Nc1cc(C(=O)N2CCOCC2)ccc1N1CCCCC1)c1cccc(-c2cn[nH]c2)n1 [I-57, N-(5-(morpholine-4-carbonyl)-2-(piperidin-1-yl)phenyl)-6-(1H-pyrazol-4-yl)picolinamide]",EC50,[1],1150 nM
same,EC50,[2],498 nM
"O=C(Nc1cc(C(=O)N2CCOCC2)ccc1N1CCCCC1)c1csc(-c2cn[nH]c2)n1 [I-59, N-(5-(morpholine-4-carbonyl)-2-(piperidin-1-yl)phenyl)-2-(1H-pyrazol-4-yl)thiazole-4-carboxamide]",EC50,[1],294 nM
same,EC50,[2],253 nM
"O=C(Nc1ccc(N2CCOCC2)cc1N1CCC(F)CC1)c1csc(-c2cn[nH]c2)n1 [I-6, N-(2-(4-fluoropiperidin-1-yl)-4-morpholinophenyl)-2-(1H-pyrazol-4-yl)thiazole-4-carboxamide]",EC50,[1],114 nM
same,EC50,[2],76.4 nM
"O=C(Nc1ccc(CCN2CCOCC2)cc1N1CCCCC1)c1ccc(-c2cn[nH]c2)o1 [I-55, N-(4-(2-morpholinoethyl)-2-(piperidin-1-yl)phenyl)-5-(1H-pyrazol-4-yl)furan-2-carboxamide]",EC50,[2],9780 nM
"O=C(Nc1ccc(N2CCOCC2)cc1N1CCC(F)(F)CC1)c1cccc(-c2cn[nH]c2)n1 [I-19, N-(2-(4,4-difluoropiperidin-1-yl)-4-morpholinophenyl)-6-(1H-pyrazol-4-yl)picolinamide]",EC50,[2],2520 nM
"COc1ccc(N2CCOCC2)cc1NC(=O)c1ccc(-c2cn[nH]c2)o1 [I-40, N-(2-methoxy-5-morpholinophenyl)-5-(1H-pyrazol-4-yl)furan-2-carboxamide]",EC50,[2],3380 nM
